Data on 2 compounds can be found in ChEMBL document CHEMBL1128813, “Inhibitors of glucosidases with related structures and inverse specificity” (Bioorg Med Chem Lett, 1995).

The nature of test [1]: Inhibitory activity against Beta-glucosidase from Almond. Also noted: species or system Prunus dulcis.
The nature of test [2]: Inhibitory activity against Beta-glucosidase from Yeast. Also noted: species or system Saccharomyces cerevisiae.
A short description of test [3]: Inhibitory activity against Beta-glucosidase from E-coli. Also noted: species or system Escherichia coli.

A word on the Ki: it is the equilibrium dissociation constant of an inhibitor or competing ligand from its target. Read a high Ki as a looser hold on the target.

In test [1], `OCC1O/C(=N\O)C(O)C(O)C1O` (centres undefined) gave an inhibition constant Ki of 100 µM.

`O=[N+]([O-])c1ccc(O/N=C2\OC(CO)C(O)C(O)C2O)c([N+](=O)[O-])c1` (centres undefined): the results for the Ki in test [2], in test [3] and in test [1] were 2.5 µM, 120 µM and 80 µM, respectively.
